Assay results: patent EP2797914B1, “NIFURATEL SULFOXIDE FOR USE IN THE TREATMENT OF BACTERIAL INFECTIONS” (Polichem SA, priority 2011, dated 2013)

Experiments:
Assay type in all cases: cell-based
[1] = tested on: Lactobacillus iners ATCC 55195; assay: MIC by broth microdilution method (CLSI M07-A8 / M11-A7); conditions: broth microdilution; Lactobacillus iners ATCC 55195
Method: The in vitro activity of nifuratel sulfoxide racemate, R-nifuratel sulfoxide and S-nifuratel sulfoxide was tested on a panel of bacteria, which included both Gram positive and Gram negative bacteria. The minimum inhibitory concentrations (MICs) of the compounds were determined by the broth microdilution method or by the agar dilution method, according to the National Committee for Clinical Laboratory Standards (CLSI) reference methods […]-A8 and M11-A7.

[2] = tested on: Salmonella typhimurium ATCC 14028; assay: MIC by broth microdilution method (CLSI M07-A8 / M11-A7); efficiency coefficient derived; conditions: broth microdilution; Salmonella typhimurium ATCC 14028
Method: (§1) The in vitro activity of nifuratel sulfoxide racemate, R-nifuratel sulfoxide and S-nifuratel sulfoxide was tested on a panel of bacteria, which included both Gram positive and Gram negative bacteria.
(§2) The minimum inhibitory concentrations (MICs) of the compounds were determined by the broth microdilution method or by the agar dilution method, according to the National Committee for Clinical Laboratory Standards (CLSI) reference methods M07-A8 and M11-A7.
(§3) The efficiency coefficient (EC) of nifuratel sulfoxide vs. nifuratel was calculated for each tested strain as follows: EC = relative oral bioavailability*[…] [formula]
(§4) Where: • nifS = nifuratel sulfoxide • nif = nifuratel • EC = 1 is indicative of equivalent efficiency between nifuratel sulfoxide and nifuratel. • EC < 1 is indicative of a lower efficiency of nifuratel sulfoxide vs. nifuratel • EC > 1 is indicative of a higher efficiency of nifS vs. nif

[3] = tested on: Shigella sonnei ATCC 11060; assay: as above
Method: as §1, §2, §3, §4

[4] = tested on: Escherichia coli ATCC 11775; assay: as above; conditions: broth microdilution; Escherichia coli ATCC 11775
Method: as §1, §2, §3, §4

[5] = tested on: Micrococcus pyogenes ATCC 11631; assay: as above; conditions: broth microdilution; Micrococcus pyogenes ATCC 11631
Method: as §1, §2, §3, §4

[6] = tested on: Klebsiella pneumonia ATCC 10031; assay: as above; conditions: broth microdilution; Klebsiella pneumonia ATCC 10031
Method: as §1, §2, §3, §4

[7] = tested on: Salmonella paratyphi B ATCC 10719; assay: as above
Method: as §1, §2, §3, §4

[8] = tested on: Proteus mirabilis ATCC 14153; assay: as above; conditions: broth microdilution; Proteus mirabilis ATCC 14153
Method: as §1, §2, §3, §4

[9] = tested on: Neisseria gonorrhoeae ATCC 19424; assay: as above; conditions: broth microdilution; Neisseria gonorrhoeae ATCC 19424
Method: as §1, §2, §3, §4

[10] = tested on: Staphylococcus aureus (MRSA); assay: as above; conditions: broth microdilution; Staphylococcus aureus (MRSA)
Method: as §1, §2, §3, §4

Atopobium vaginae = assay: MIC by agar dilution method (CLSI M07-A8 / M11-A7); efficiency coefficient derived; conditions: for MIC: agar dilution; for in vitro antimicrobial activity (in words): tested Atopobium vaginae strains
Method: as §1, §2, §3, §4

Gardnerella vaginalis = assay: as above; conditions: for MIC: agar dilution; for in vitro antimicrobial activity (in words): tested Gardnerella vaginalis strains
Method: as §1, §2, §3, §4

| Compound | MIC [1] | MIC [2] | MIC [3] | MIC [4] | MIC [5] | MIC [6] | MIC [7] | MIC [8] | MIC [9] | MIC [10] | MIC (Atopobium vaginae; strain CCUG 38953) | MIC (Atopobium vaginae; strain CCUG 39382) | MIC (Atopobium vaginae; strain CCUG 42099) | MIC (Atopobium vaginae; strain CCUG 43049) | MIC (Atopobium vaginae; strain CCUG 44061) | MIC (Atopobium vaginae; strain CCUG 44156) | MIC (Atopobium vaginae; strain CCUG 48515) | MIC (Atopobium vaginae; strain CCUG 55226) | MIC (Atopobium vaginae; strain CCUG 55227) | in vitro antimicrobial activity (in words) (Atopobium vaginae) | further results |
| --- | --- | --- | --- | --- | --- | --- | --- | --- | --- | --- | --- | --- | --- | --- | --- | --- | --- | --- | --- | --- | --- |
| C[S+]([O-])CC1CN(N=Cc2ccc([N+](=O)[O-])o2)C(=O)O1 (mixture of isomers) [R-Nifuratel sulfoxide, (R)-nifuratel sulfoxide] | 16 mg/L | 16 mg/L | 16 mg/L | 16 mg/L | 32 mg/L | 16 mg/L | 16 mg/L | 8 mg/L | 2 mg/L | 16 mg/L | 1 mg/L | 1 mg/L | 1 mg/L | 4 mg/L | 1 mg/L | 2 mg/L | 2 mg/L | 2 mg/L | 1 mg/L | good activity | MIC (Gardnerella vaginalis; strain ATCC 14018): 8 mg/L; MIC (Gardnerella vaginalis; strain C2): 32 mg/L; MIC (Gardnerella vaginalis; strain D2): 64 mg/L; MIC (Gardnerella vaginalis; strain E2): 64 mg/L; MIC (Gardnerella vaginalis; strain G2): 64 mg/L; MIC (Gardnerella vaginalis; strain H2): 16 mg/L; MIC (Gardnerella vaginalis; strain J2): 32 mg/L; MIC (Gardnerella vaginalis; strain K2): 64 mg/L; in vitro antimicrobial activity (in words) (Gardnerella vaginalis): good activity |
| C[S+]([O-])CC1CN(N=Cc2ccc([N+](=O)[O-])o2)C(=O)O1 (mixture of isomers) [S-Nifuratel sulfoxide, (S)-nifuratel sulfoxide] | 32 mg/L | 16 mg/L | 16 mg/L | 16 mg/L | 64 mg/L | 16 mg/L | 8 mg/L | 4 mg/L | 2 mg/L | 16 mg/L | 2 mg/L | 2 mg/L | 16 mg/L | 8 mg/L | 1 mg/L | 2 mg/L | 2 mg/L | 8 mg/L | 4 mg/L | good activity | MIC (Gardnerella vaginalis; strain ATCC 14018): 16 mg/L; MIC (Gardnerella vaginalis; strain C2): 16 mg/L; MIC (Gardnerella vaginalis; strain D2): 16 mg/L; MIC (Gardnerella vaginalis; strain E2): 32 mg/L; MIC (Gardnerella vaginalis; strain G2): 16 mg/L; MIC (Gardnerella vaginalis; strain H2): 8 mg/L; MIC (Gardnerella vaginalis; strain J2): 16 mg/L; MIC (Gardnerella vaginalis; strain K2): 32 mg/L; in vitro antimicrobial activity (in words) (Gardnerella vaginalis): good activity |
